Values after ≈ are worked out from the molar mass of the structure shown.
How the values were obtained:
Mus musculus [1] = test: Analgesic activity in iv dosed ICR mouse assessed as reduction in acetic acid induced writhing administered for 15 mins followed by acetic acid injection and measured within 15 mins; type: functional; settings: 0.5 h, time 30 min
Rattus norvegicus = species on record: Rattus norvegicus; test: Antiinflammatory activity in carrageenan-induced Sprague-Dawley rat assessed as paw withdrawal threshold measured after 2.5 hrs by paw pressure test; type: functional
Mus musculus [2] = test: Analgesic activity in acetic acid induced ICR mouse assessed as average writhing times at 6.25 mg/kg, iv administered for 15 mins followed by acetic acid injection and measured within 15 mins (reference value: 26.1 +/- 16.3); type: functional; settings: time 30 min, 0.5 h
Mus musculus [3] = test: Analgesic activity in acetic acid induced ICR mouse assessed as average writhing times at 12.50 mg/kg, iv administered for 15 mins followed by acetic acid injection and measured within 15 mins (reference value: 26.1 +/- 16.3); type: functional; settings: dose 12.5 mg/kg, time 30 min, 0.5 h
Mus musculus [4] = test: Analgesic activity in acetic acid induced ICR mouse assessed as average writhing times at 25 mg/kg, iv administered for 15 mins followed by acetic acid injection and measured within 15 mins (reference value: 26.1 +/- 16.3); type: functional; settings: time 30 min, 0.5 h
Mus musculus [5] = test: Analgesic activity in acetic acid induced ICR mouse assessed as average writhing times at 3.13 mg/kg, iv administered for 15 mins followed by acetic acid injection and measured within 15 mins (reference value: 26.1 +/- 16.3); type: functional; settings: time 30 min, 0.5 h
Mus musculus [6] = test: Antinociceptive activity in acetic acid induced ICR mouse assessed as inhibition effect at 6.25 mg/kg, iv administered for 15 mins followed by acetic acid injection and measured within 15 mins; type: functional; settings: 0.5 h, time 30 min
Mus musculus [7] = test: Antinociceptive activity in acetic acid induced ICR mouse assessed as inhibition effect at 12.50 mg/kg, iv administered for 15 mins followed by acetic acid injection and measured within 15 mins; type: functional; settings: 0.5 h, time 30 min
Mus musculus [8] = test: Antinociceptive activity in acetic acid induced ICR mouse assessed as inhibition effect at 25 mg/kg, iv administered for 15 mins followed by acetic acid injection and measured within 15 mins; type: functional; settings: 0.5 h, time 30 min
Mus musculus [9] = test: Antinociceptive activity in acetic acid induced ICR mouse assessed as inhibition effect at 3.13 mg/kg, iv administered for 15 mins followed by acetic acid injection and measured within 15 mins; type: functional; settings: 0.5 h, time 30 min
[10] = Aqueous solubility of the compound

Compound CC(C)Cc1ccc(C(C)C(=O)O)cc1 (stereo unspecified) [IBUPROFEN] has an ED50 (Mus musculus [1]) of 5 mg/kg, an ED50 (Rattus norvegicus) of 21 mg/kg and an Activity (Mus musculus [2]) of 6.1. The Activity (Mus musculus [3]) was 4, the Activity (Mus musculus [4]) was 3 and the Activity (Mus musculus [5]) was 21. For the same compound, the inhibition in vivo at 6.25 mg/kg (Mus musculus [6]) was 76.6%, the inhibition in vivo at 12.5 mg/kg (Mus musculus [7]) was 84.7% and the inhibition in vivo at 25 mg/kg (Mus musculus [8]) was 88.5%. For the same compound, the inhibition in vivo at 3.13 mg/kg (Mus musculus [9]) was 19.5% and the solubility [10] was 21.9 µg/mL (≈ 106 µM).
